Series [1] addresses T1, Vascular endothelial growth factor receptor 2 (Homo sapiens, UniProt P35968).
For series [2], the target named is T1, Vascular endothelial growth factor receptor 2. The series is classed as functional, cell-based, NIH3T3.
Another series deals with Cytochrome P450 3A4 (Homo sapiens, UniProt P08684). Kind of series: Inhibition of CYP3A4. The format is ADME.
Series [3] can be described thus: Half life in mouse at 3 mg/kg, iv. The format is ADME, organism-based. Details: dose 3 mg/kg, route intravenous. The following applies: in vivo.
Another series relates to Mus musculus. Description: Inhibition of estradiol-induced mouse uterine edema […]. The format is functional.

T1 sequence (P35968 whole entry): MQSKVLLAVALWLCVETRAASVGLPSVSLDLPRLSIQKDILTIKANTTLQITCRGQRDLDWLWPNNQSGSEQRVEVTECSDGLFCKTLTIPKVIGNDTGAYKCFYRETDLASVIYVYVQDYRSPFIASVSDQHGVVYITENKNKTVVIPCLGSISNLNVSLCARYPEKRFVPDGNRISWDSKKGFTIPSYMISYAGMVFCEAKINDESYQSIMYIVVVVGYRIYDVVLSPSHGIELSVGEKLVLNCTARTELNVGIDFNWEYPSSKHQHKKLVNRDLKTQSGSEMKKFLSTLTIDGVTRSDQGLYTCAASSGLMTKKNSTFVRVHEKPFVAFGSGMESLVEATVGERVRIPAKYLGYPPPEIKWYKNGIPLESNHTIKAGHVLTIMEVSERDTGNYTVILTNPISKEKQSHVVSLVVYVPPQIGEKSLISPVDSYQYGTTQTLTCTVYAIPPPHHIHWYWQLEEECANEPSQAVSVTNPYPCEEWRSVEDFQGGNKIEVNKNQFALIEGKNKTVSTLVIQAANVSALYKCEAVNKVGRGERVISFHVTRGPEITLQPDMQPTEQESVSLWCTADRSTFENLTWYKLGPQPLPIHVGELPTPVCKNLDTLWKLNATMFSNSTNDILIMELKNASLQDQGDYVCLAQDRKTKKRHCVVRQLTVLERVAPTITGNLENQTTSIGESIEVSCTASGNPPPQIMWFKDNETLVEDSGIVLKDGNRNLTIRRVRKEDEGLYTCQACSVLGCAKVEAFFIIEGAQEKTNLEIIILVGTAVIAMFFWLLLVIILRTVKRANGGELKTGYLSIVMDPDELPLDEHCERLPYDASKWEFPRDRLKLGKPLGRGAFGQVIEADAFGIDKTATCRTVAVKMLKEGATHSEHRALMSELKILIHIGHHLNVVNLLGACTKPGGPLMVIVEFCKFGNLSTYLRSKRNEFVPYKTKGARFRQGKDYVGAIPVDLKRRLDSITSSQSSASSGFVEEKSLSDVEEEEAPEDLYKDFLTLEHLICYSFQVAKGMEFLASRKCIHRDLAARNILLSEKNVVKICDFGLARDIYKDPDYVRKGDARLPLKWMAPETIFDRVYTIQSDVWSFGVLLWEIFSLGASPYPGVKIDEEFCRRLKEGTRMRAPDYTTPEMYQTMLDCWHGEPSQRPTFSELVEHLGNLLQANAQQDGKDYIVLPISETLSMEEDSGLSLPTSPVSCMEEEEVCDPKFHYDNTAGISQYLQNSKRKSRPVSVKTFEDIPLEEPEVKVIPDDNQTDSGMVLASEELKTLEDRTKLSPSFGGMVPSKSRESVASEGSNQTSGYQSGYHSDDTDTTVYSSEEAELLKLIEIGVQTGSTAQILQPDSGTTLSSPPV
Chain of Cytochrome P450 3A4 (P08684 whole entry): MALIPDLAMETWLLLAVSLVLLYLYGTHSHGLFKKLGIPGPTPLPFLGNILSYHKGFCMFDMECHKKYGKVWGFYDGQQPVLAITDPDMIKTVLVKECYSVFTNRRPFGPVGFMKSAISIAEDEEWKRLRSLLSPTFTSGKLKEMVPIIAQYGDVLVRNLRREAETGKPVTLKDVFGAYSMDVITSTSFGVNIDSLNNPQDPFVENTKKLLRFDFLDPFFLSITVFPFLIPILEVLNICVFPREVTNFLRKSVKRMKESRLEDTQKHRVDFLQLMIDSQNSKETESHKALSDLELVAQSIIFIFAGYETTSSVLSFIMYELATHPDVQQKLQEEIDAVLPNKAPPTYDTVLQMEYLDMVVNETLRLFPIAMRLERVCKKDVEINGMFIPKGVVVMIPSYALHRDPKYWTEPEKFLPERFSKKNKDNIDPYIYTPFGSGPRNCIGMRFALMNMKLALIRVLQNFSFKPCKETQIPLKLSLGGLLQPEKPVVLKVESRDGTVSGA

In series [1], `Nc1nccc2scc(-c3ccc(NC(=O)NC4CCCC4)cc3)c12` gave an IC50 of 420 nM.
On to `Cc1ccc(NC(=O)Nc2ccc(-c3csc4ccnc(N)c34)cc2)cc1`, for which the IC50 in series [2] is 141 nM; in series [1], 26 nM.
In the case of `Cc1cccc(NC(=O)Nc2ccc(-c3csc4c(-c5cncc6ccccc56)cnc(N)c34)cc2)c1`, half-maximal inhibition in series [1] (IC50) was put at 388 nM. In other words, the sub-micromolar range.
In the case of `Cc1cccc(NC(=O)Nc2ccc(-c3csc4c(-c5cccnc5)cnc(N)c34)cc2)c1`, the IC50 against Cytochrome P450 3A4 worked out at 250 nM. In series [3], this compound had a half-life of 24 min. Moreover, the 50% effective dose (ED50) in the series on Mus musculus amounted to 2.1 mg/kg.
In turn, `Cc1cccc(N(C)C(=O)Nc2ccc(-c3csc4ccnc(N)c34)cc2)c1` came in with a 50% inhibitory concentration (IC50) in series [1] of 4900 nM.
For `Cc1cccc(NC(=O)Nc2ccc(-c3csc4c(-c5cncnc5)cnc(N)c34)cc2)c1`, the values for the IC50 in series [2] and in series [1] were 1 nM and 8 nM, respectively.
The matching figures for `Nc1nccc2scc(-c3ccc(NC(=O)Nc4ccc5ccccc5c4)cc3)c12`: 15 nM and 21 nM.
As to `N#Cc1cccc(NC(=O)Nc2ccc(-c3csc4ccnc(N)c34)cc2)c1`, the values for the IC50 in series [2] and in series [1] were 198 nM and 45 nM, respectively.
For `Nc1nccc2scc(-c3ccc(NC(=O)NC4CCCCC4)cc3)c12`, the IC50 in series [1] is 491 nM.
For `Cc1cccc(NC(=O)Nc2cccc(-c3csc4ccnc(N)c34)c2)c1`, in series [1], it took 250 nM to reach half-maximal inhibition (IC50). This IC50 is about 2-fold lower than that of the compound before.
Still for that read-out and setting: the figure for `Cc1cccc(NC(=O)N(C)c2ccc(-c3csc4ccnc(N)c34)cc2)c1` is 23 nM; for `Cc1ccccc1NC(=O)Nc1ccc(-c2csc3ccnc(N)c23)cc1` it is 152 nM.
As to `Nc1nccc2scc(-c3ccc(NC(=O)c4ccccc4)cc3)c12`, half-maximal inhibition in series [1] (IC50) required 12000 nM.
Regarding `Nc1nccc2scc(-c3ccc(NC(=O)Nc4ccccc4)cc3)c12`, the half-inhibitory concentration (IC50) in series [2] amounted to 72 nM; in series [1] it was 56 nM.
The matching figures for `Cc1ccc(NC(=O)Nc2ccc(-c3csc4ccnc(N)c34)cc2)cc1C`: 41 nM and 10 nM.
Regarding `Nc1nccc2scc(-c3ccccc3)c12`, the IC50 in series [1] was greater than 12500 nM.
Still for that read-out and setting: the figure for `Cc1cccc(CC(=O)Nc2ccc(-c3csc4ccnc(N)c34)cc2)c1` is 520 nM.
With `Nc1nccc2scc(-c3ccc(NC(=O)Nc4cccs4)cc3)c12`, the IC50 came to 48 nM in series [2] and 30 nM in series [1].
The matching figures for `Cc1cc(C)cc(NC(=O)Nc2ccc(-c3csc4ccnc(N)c34)cc2)c1`: 48 nM and 16 nM.
The matching figures for `Cc1cccc(NC(=O)Nc2ccc(-c3csc4c(-c5ccc(O)cc5)cnc(N)c34)cc2)c1`: 29 nM and 11 nM.
`Cc1cccc(NC(=S)Nc2ccc(-c3csc4ccnc(N)c34)cc2)c1` gave an IC50 in series [1] of 410 nM.
As for `Nc1nccc2scc(-c3ccc(NC(=O)Nc4cccc5ccccc45)cc3)c12`, the IC50 is 895 nM in series [2] and 75 nM in series [1].
For `Cc1cccc(NC(=O)Nc2ccc(-c3c(C)sc4ccnc(N)c34)cc2)c1`, in series [1], the half-maximal inhibitory concentration (IC50) was found to be 27 nM.
For `Cc1cccc(NC(=O)Nc2ccc(-c3csc4c(-c5ccccc5)cnc(N)c34)cc2)c1`, the results for the IC50 in series [2] and in series [1] were 33 nM and 13 nM, respectively.
The corresponding values for `CCc1cccc(NC(=O)Nc2ccc(-c3csc4ccnc(N)c34)cc2)c1` are 32 nM and 25 nM.
`Nc1nccc2scc(-c3ccc(NC(=O)Nc4ccsc4)cc3)c12`: the IC50 in series [2] came to 61 nM; in series [1] it was 38 nM.
Regarding `Nc1ccc(-c2csc3ccnc(N)c23)cc1`, in series [1], 4900 nM corresponded to half-maximal inhibition (IC50).
Still for that read-out and setting: then `Cc1cccc(NC(=O)Cc2ccc(-c3csc4ccnc(N)c34)cc2)c1`, with 94 nM.
`CNC(=O)c1cccc(-c2cnc(N)c3c(-c4ccc(NC(=O)Nc5cccc(C)c5)cc4)csc23)c1`: the half-maximal inhibitory concentration (IC50) in series [2] turned out to be 56 nM; in series [1], 11 nM.

In general, IC50 refers to the concentration needed to halve the response being measured. Lower therefore signals inhibition by little substance. The term half-life denotes the time needed for the level to fall by half in the phase considered. For orientation: ED50 means the dose that gives a 50% effect, or the effect in half of the subjects.

(Values after ChEMBL document CHEMBL1144590, “Thienopyridine urea inhibitors of KDR kinase” (Bioorg Med Chem Lett, 2007).)
